The values that follow come from patent publication US7060683B2, “Hydroxamate-containing cysteine and serine protease inhibitors” (Cephalon, Inc., priority 1998, dated 2006).

Usually IC50 stands for the concentration needed to halve the response being measured.

This test deals with T1, Recombinant human calpain I (Homo sapiens, UniProt P07384).
T1 construct: made in house
T1 sequence (P07384 1-714): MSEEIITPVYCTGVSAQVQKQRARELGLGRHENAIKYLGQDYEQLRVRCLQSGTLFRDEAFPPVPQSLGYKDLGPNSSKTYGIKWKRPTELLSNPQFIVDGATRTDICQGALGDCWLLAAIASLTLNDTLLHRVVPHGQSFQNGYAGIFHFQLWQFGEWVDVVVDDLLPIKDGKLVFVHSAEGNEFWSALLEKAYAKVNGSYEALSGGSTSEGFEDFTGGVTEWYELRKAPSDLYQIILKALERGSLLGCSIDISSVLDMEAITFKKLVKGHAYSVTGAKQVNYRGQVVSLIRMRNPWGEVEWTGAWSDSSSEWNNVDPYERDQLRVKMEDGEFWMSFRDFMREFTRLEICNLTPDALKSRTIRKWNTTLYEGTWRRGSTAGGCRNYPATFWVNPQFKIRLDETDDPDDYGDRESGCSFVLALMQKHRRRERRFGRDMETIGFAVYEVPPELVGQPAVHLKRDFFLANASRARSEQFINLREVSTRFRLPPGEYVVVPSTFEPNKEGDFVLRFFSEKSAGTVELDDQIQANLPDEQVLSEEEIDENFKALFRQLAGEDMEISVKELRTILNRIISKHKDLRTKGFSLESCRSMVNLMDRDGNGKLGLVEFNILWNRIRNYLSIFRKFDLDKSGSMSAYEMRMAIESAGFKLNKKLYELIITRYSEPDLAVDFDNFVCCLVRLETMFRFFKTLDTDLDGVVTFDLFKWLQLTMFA
T1 sequence (P04632 1-268 partner): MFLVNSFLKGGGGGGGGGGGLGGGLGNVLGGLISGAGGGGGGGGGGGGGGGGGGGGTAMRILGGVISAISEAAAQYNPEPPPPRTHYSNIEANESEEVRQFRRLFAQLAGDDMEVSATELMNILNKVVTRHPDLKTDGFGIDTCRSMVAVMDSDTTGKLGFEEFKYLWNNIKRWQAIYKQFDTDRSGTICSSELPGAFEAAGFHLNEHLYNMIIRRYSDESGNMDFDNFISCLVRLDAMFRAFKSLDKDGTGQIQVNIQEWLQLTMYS
The test can be described thus: Inhibition of Calpain (Succ-Leu-Tyr-MNA substrate hydrolysis). The test is classed as biochemical. As to conditions: 0.2 mM Succ-Leu-Tyr-MNA, pH 7.5, five to seven concentrations. The method, then:
To evaluate inhibitory activity, stock solutions (40 times concentrated) of each compound to be tested were prepared in 100% anhydrous DMSO and 5 μL of each inhibitor preparation were aliquoted into each of three wells of a 96-well plate. Recombinant human calpain I, prepared by the method of Meyer et al. (Biochem., J. 1996, 314: 511–519), was diluted into assay buffer (i.e., 50 mM Tris, 50 mM NaCl, 1 mM EDTA, 1 mM EGTA, and 5 mM β-mercaptoethanol, pH 7.5, including 0.2 mM Succ-Leu-Tyr-MNA), and 175 μl was aliquoted into the same wells containing the independent inhibitor stocks as well as to positive control wells containing 5 μl DMSO, but no compound. To start the reaction, 20 μl of 50 mM CaCl2 in assay buffer was added to all wells of the plate, excepting three, which were used as background signal baseline controls. Substrate hydrolysis was monitored every 5 minutes for a total of 30 minutes.
Inhibition of calpain I activity was calculated as the percent decrease in the rate of substrate hydrolysis in the presence of inhibitor relative to the rate in its absence. Comparison between the inhibited and control rates was made within the linear range for substrate hydrolysis. The IC50s of inhibitors (concentration yielding 50% inhibition) were determined from the percent decrease in rates of substrate hydrolysis in the presence of five to seven different concentrations of the test compound. The results were plotted as percent inhibition versus log inhibitor concentration, and the IC50 was calculated by fitting the data to the four-parameter logistic equation shown below using the program GraphPad Prism (GraphPad Software, Inc., San Diego, Calif.). y=d+[(a−d)/(1+(x/c)^b)]
The parameters a, b, c, and d are defined as follows: a is % inhibition in the absence of inbibitor, b is the slope, c is the IC50, and d is the % innibition at an infinite concentration of inhibitor.

For the compound `CCCC[C@H](NC(=O)[C@H](Cc1ccccc1)NC(=O)c1ccccc1)C(=O)C(=O)NOCC` [Example 15, PhCO-Phe-Nle-CONHOEt], the IC50 stood at 193 nM.

As for `CS(=O)(=O)N[C@H](COCc1ccccc1)C(=O)N[C@@H](Cc1ccccc1)C(=O)C(=O)NOCc1ccccc1` [Example 8, CH3SO2-D-Ser(Bn)-Phe-CONHOBn], the IC50 came out at 28 nM.

On to `CC(C)C[C@H](NC(=O)OCc1ccccc1)C(=O)N[C@@H](Cc1ccccc1)C(=O)C(=O)NOCc1ccccc1` [Example 3, Cbz-Leu-Phe-CONHOBn], for which the 50% inhibitory concentration (IC50) is 6 nM.

For `CC(C)C[C@H](NC(=O)OCc1ccccc1)C(=O)N[C@@H](CC(C)C)C(=O)N[C@@H](Cc1ccccc1)C(=O)C(=O)NOCc1ccccc1` [Example 13, Cbz-Leu-Leu-Phe-CONHOBn], the 50% inhibitory concentration (IC50) came to 17 nM.

In the case of `CCONC(=O)C(=O)[C@H](Cc1ccccc1)NC(=O)[C@H](CC(C)C)NC(=O)OCc1ccccc1` [Example 2, Cbz-Leu-Phe-CONHOEt], the concentration for half-maximal inhibition (IC50) was 19 nM.

As to `CC(C)C[C@H](NC(=O)OCc1ccccc1)C(=O)N[C@@H](Cc1ccccc1)C(=O)C(=O)NOC(C)(C)C` [Example 5, Cbz-Leu-Phe-CONHOtBu], the half-inhibitory concentration (IC50) was 26 nM.

Consider `CCONC(=O)C(=O)[C@H](Cc1ccccc1)NC(=O)[C@@H](COCc1ccccc1)NS(C)(=O)=O` [Example 9], for which the IC50 worked out at 56 nM.

Turning to `CCCC[C@H](NC(=O)[C@@H](NC(=O)OCc1ccccc1)C(C)C)C(=O)C(=O)NOCc1ccccc1` [Example 11, Cbz-Val-Nle-CONHOBn], the half-inhibitory concentration (IC50) came out at 21 nM.

`COC[C@H](NC(=O)[C@@H](COCc1ccccc1)NS(C)(=O)=O)C(=O)C(=O)NOCc1ccccc1` [Example 7, CH3SO2-D-Ser(Bn)-Ser(Me)-CONHOBn]: the half-maximal inhibitory concentration (IC50) came out at 152 nM.

Take `CCCCONC(=O)C(=O)[C@H](Cc1ccccc1)NC(=O)[C@H](CC(C)C)NC(=O)OCc1ccccc1` [Example 14, Cbz-Leu-Phe-CONHOBu]: the IC50 was found to be 183 nM.

With `CC(C)C[C@H](NC(=O)OCc1ccccc1)C(=O)N[C@@H](Cc1ccccc1)C(=O)C(=O)NOC1CCC(C)CC1` (stereo partly drawn) [Example 6, Cbz-Leu-Phe-CONHO(4-methylcyclohexane)], the half-maximal inhibitory concentration (IC50) is 21 nM.

As to `CONC(=O)C(=O)[C@H](Cc1ccccc1)NC(=O)[C@H](CC(C)C)NC(=O)[C@H](CC(C)C)NC(=O)OCc1ccccc1` [Example 12, Cbz-Leu-Leu-Phe-CONHOCH3], the IC50 came out at 20 nM.

Consider `CONC(=O)C(=O)[C@H](Cc1ccccc1)NC(=O)[C@H](CC(C)C)NC(=O)OCc1ccccc1` [Example 1, Cbz-Leu-Phe-CONHOCH3], for which the 50% inhibitory concentration (IC50) turned out to be 10 nM.

Turning to `CC(C)C[C@H](NC(=O)OCc1ccccc1)C(=O)N[C@@H](Cc1ccccc1)C(=O)C(=O)NOCc1c(F)c(F)c(F)c(F)c1F` [Example 4, Cbz-Leu-Phe-CONHOCH2C6F5], the IC50 was determined as 17 nM.
